Among the data in patent publication US8012956B2, “Tropane compounds” (Exelixis, Inc., priority 2007, dated 2011) are IC50 values, retold here.

This test deals with HSP90 (Homo sapiens, UniProt P07900). Nature of the test: HSP90 inhibition (HSP90 IC50). It counts as biochemical.
On to `CC(C)[C@H](C)Nc1cc(C(=O)NC2CC3CCC(C2)N3c2ccc(C(=O)C3CC3)cn2)ccc1C(N)=O` (stereo partly drawn) [N4-{8-[5-(cyclopropylcarbonyl)pyridin-2-yl]-8-azabicyclo[3.2.1]oct-3-endo-yl}-2-{[(1S)-1,2-dimethylpropyl]amino}benzene-1,4-dicarboxamide], for which the IC50 is < 500 nM.

`COc1cccc(C(=O)N[C@H]2C[C@H]3CC[C@@H](C2)N3c2ccc(C(=O)NCc3cccc(C)c3)cn2)c1C` [6-[3-endo-({[2-methyl-3-(methyloxy)phenyl]carbonyl}amino)-8-azabicyclo[3.2.1]oct-8-yl]-N-[(3-methylphenyl)methyl]pyridine-3-carboxamide] showed an IC50 of 2000 to 10000 nM.

With `Cc1cc(C(N)=O)c(N)cc1C(=O)N[C@H]1C[C@H]2CC[C@@H](C1)N2c1ccc(C(=O)C2CC2)cn1` [5-amino-N-{8-[5-(cyclopropylcarbonyl)pyridin-2-yl]-8-azabicyclo[3.2.1]oct-3-endo-yl}-2-methylbenzene-1,4-dicarboxamide], the IC50 is < 500 nM.

For `Cc1cc(C(=O)NC2CC3CCC(C2)N3c2ccc(C(=O)N[C@H]3CCCN(C(C)C)C3)cn2)c(C)cc1C(N)=O` (stereo partly drawn) [2,5-dimethyl-N-{8-[5-({[(3S)-1-(1-methylethyl)piperidin-3-yl]amino}carbonyl)pyridin-2-yl]-8-azabacyclo[3.2.1]oct-3-endo-yl}benzene-1,4-dicarboxamide], the IC50 lay in the range of 500 to 999 nM.

`COc1cccc(C(=O)NC2CC3CCC(C2)N3c2ccc(C(=O)N[C@@H](C)C(N)=O)cn2)c1C` (stereo partly drawn) [N-[(1S)-2-amino-1-methyl-2-oxoethyl]-6-[3-endo-({[2-methyl-3-(methyloxy)phenyl]carbonyl}amino)-8-azabicyclo[3.2.1]oct-8-yl]pyridine-3-carboxamide] displayed an IC50 of 500 to 999 nM.

Take `CC(=O)c1ccc(N2[C@@H]3CC[C@H]2C[C@@H](NC(=O)c2ccc(C(N)=O)c(Nc4cccc(OCCN(C)C)c4)c2)C3)nc1` [N4-[8-(5-acetylpyridin-2-yl)-8-azabicyclo[3.2.1]oct-3-endo-yl]-2-[(3-{[2-(dimethylamino)ethyl]oxy}phenyl)amino] benzene-1,4-dicarboxamide]: the concentration for half-maximal inhibition (IC50) was < 500 nM.

Molecule `COc1cccc(C(=O)NC2CC3CCC(C2)N3c2ccc(C(=O)N[C@H](C)c3ccccc3)cn2)c1C` (stereo partly drawn) [6-[3-endo-({[2-methyl-3-(methyloxy)phenyl]carbonyl}amino)-8-azabicyclo[3.2.1]oct-8-yl]-N-[(1R)-1-phenylethyl]pyridine-3-carboxamide] registered a half-maximal inhibitory concentration (IC50) of 2000 to 10000 nM.

On to `Cc1cnc(CNC(=O)c2ccc(N3[C@@H]4CC[C@H]3C[C@@H](NC(=O)c3ccc(CO)cc3)C4)nc2)cn1` [6-[3-endo-({[4-(hydroxymethyl)phenyl]carbonyl}amino)-8-azabicyclo[3.2.1]oct-8-yl]-N-[(5-methylpyrazin-2-yl)methyl]pyridine-3-carboxamide], for which the concentration for half-maximal inhibition (IC50) is < 500 nM.

With `CCN1CCC(Nc2cc(C(=O)N[C@H]3C[C@H]4CC[C@@H](C3)N4c3ccc(C(C)=O)cn3)ccc2C(N)=O)CC1` [N4-[8-(5-acetylpyridin-2-yl)-8-azabicyclo[3.2.1]oct-3-endo-yl]-2-[(1-ethylpiperidin-4-yl)amino]benzene-1,4-dicarboxamide], the IC50 fell in the range of 500 to 999 nM.

Take `CC(=O)c1ccc(N2[C@@H]3CC[C@H]2C[C@@H](NC(=O)c2ccc(C(N)=O)c(NC(C)C(C)(C)C)c2)C3)nc1` (stereo partly drawn) [N4-[8-(5-acetylpyridin-2-yl)-8-azabicyclo[3.2.1]oct-3-endo-yl]-2-[(1,2,2-trimethylpropyl)amino]benzene-1,4-dicarboxamide]: the 50% inhibitory concentration (IC50) is < 500 nM.

`COc1cccc(C(=O)N[C@H]2C[C@H]3CC[C@@H](C2)N3c2ccc(C(=O)NCc3ccccc3)cn2)c1I` [6-[3-endo-({[2-iodo-3-(methyloxy)phenyl]carbonyl}amino)-8-azabicyclo[3.2.1]oct-8-yl]-N-(phenylmethyl)pyridine-3-carboxamide] had a half-maximal inhibitory concentration (IC50) of 2000 to 10000 nM.

Molecule `COc1cc(C(=O)N[C@H]2C[C@H]3CC[C@@H](C2)N3c2ccc(C(N)=O)cn2)ccc1CO` [6-[3-endo-({[4-(hydroxymethyl)-3-(methyloxy)phenyl]carbonyl}amino)-8-azabicyclo[3.2.1]oct-8-yl]pyridine-3-carboxamide] gave a half-maximal inhibitory concentration (IC50) of 500 to 999 nM.

In the case of `CCN1CC[C@@H](NC(=O)c2ccc(N3C4CCC3CC(NC(=O)c3cc(C)c(C(N)=O)cc3C)C4)nc2)C1` (stereo partly drawn) [N-{8-[5-({[(3R)-1-ethylpyrrolidin-3-yl]amino}carbonyl)pyridin-2-yl]-8-azabicyclo[3.2.1]oct-3-endo-yl}-2,5-dimethylbenzene-1,4-dicarboxamide], the IC50 is < 500 nM.

For `NC(=O)c1ccc(N2C3CCC2CC(NC(=O)c2ccc(C(N)=O)c(N[C@H]4CC[C@H](N)CC4)c2)C3)nc1` (stereo partly drawn) [N4-{8-[5-(aminocarbonyl)pyridin-2-yl]-8-azabicyclo[3.2.1]oct-3-endo-yl}-2-[(trans-4-aminocyclohexyl)amino]benzene-1,4-dicarboxamide], the half-inhibitory concentration (IC50) is < 500 nM.

`COc1cccc(C(=O)N[C@H]2C[C@H]3CC[C@@H](C2)N3c2ccc(C(N)=O)cn2)c1C#CCCO` [6-[3-endo-({[2-(4-hydroxybut-1-yn-1-yl)-3-(methyloxy)phenyl]carbonyl}amino)-8-azabicyclo[3.2.1]oct-8-yl]pyridine-3-carboxamide] showed an IC50 of 2000 to 10000 nM.

In turn, `COc1ccc([C@H](NC(=O)c2ccc(N3C4CCC3CC(NC(=O)c3cccc(OC)c3C)C4)nc2)C(=O)O)cc1` (stereo partly drawn) [(2S)-[({6-[3-endo-({[2-methyl-3-(methyloxy)phenyl]carbonyl}amino)-8-azabicyclo[3.2.1]oct-8-yl]pyridin-3-yl}carbonyl)amino][4-(methyloxy)phenyl]ethanoic acid] yielded an IC50 of 1000 to 2000 nM.

In turn, `COc1cccc(C(=O)N[C@H]2C[C@H]3CC[C@@H](C2)N3c2ccc(C(=O)Nc3ccc(C4CCN(C)CC4)cc3)cn2)c1C` [6-[3-endo-({[2-methyl-3-(methyloxy)phenyl]carbonyl}amino)-8-azabicyclo[3.2.1]oct-8-yl]-N-[4-(1-methylpiperidin-4-yl)phenyl]pyridine-3-carboxamide] displayed an IC50 of 1000 to 2000 nM.

`COc1cccc(C(=O)N[C@H]2C[C@H]3CC[C@@H](C2)N3c2ccc(C(N)=O)cn2)c1Cl` [6-[3-endo-({[2-chloro-3-(methyloxy)phenyl]carbonyl}amino)-8-azabicyclo[3.2.1]oct-8-yl]pyridine-3-carboxamide]: the IC50 fell in the range of 2000 to 10000 nM.

`NC(=O)c1ccc(C(=O)NC2CC3CCC(C2)N3c2ccc(C(=O)CC(O)c3ccccc3)cn2)cc1NCC1CC1` (stereo not drawn) [2-[(cyclopropylmethyl)amino]-N4-{8-[5-(3-hydroxy-3-phenylpropanoyl)pyridin-2-yl]-8-azabicyclo[3.2.1]oct-3-endo-yl}benzene-1,4-dicarboxamide] came in with an IC50 of 500 to 999 nM.

With `CCN1CCC(NC(=O)c2ccc(N3[C@@H]4CC[C@H]3C[C@@H](NC(=O)c3cc(C)c(C(N)=O)cc3C)C4)nc2)CC1` [N-[8-(5-{[(1-ethylpiperidin-4-yl)amino]carbonyl}pyridin-2-yl)-8-azabicyclo[3.2.1]oct-3-endo-yl]-2,5-dimethylbenzene-1,4-dicarboxamide], the IC50 was in the range of 500 to 999 nM.

Regarding `Cc1cc(C(=O)NC2CC3CCC(C2)N3c2ccc(C(=O)N[C@@H]3CCCN(C)C3)cn2)c(C)cc1C(N)=O` (stereo partly drawn) [2,5-dimethyl-N-{8-[5-({[(3R)-1-methylpiperidin-3-yl]amino}carbonyl)pyridin-2-yl]-8-azabicyclo[3.2.1]oct-3-endo-yl}benzene-1,4-dicarboxamide], the IC50 is < 500 nM.

In general, IC50 refers to the concentration needed to halve the response being measured.
